According to patent publication US6617127B2, “Synthesis and recovery of aspartame involving enzymatic deformylation step” (Holland Sweetener Company, V.O.F., priority 1998, dated 2003):
Residues, ends and D or L forms follow the SMILES beside them. *: point of attachment. For = O=C*

Tests used:
[1] = biological target: T1, EC 3.5.1.27 PDF (Fe^2+) enzyme (Escherichia coli, UniProt P0A6K3); test: Deformylation reactions with PDF (Fe^2+), free amino compound determined by TNBS; type: biochemical, E. coli; conditions: for yield (%) of deformylated product: 100 mM substrate, 0.2 mM PDF (Fe^2+), MES/KOH pH 6.2, 250 mM KCl, 37° C., after 10 hours; for inhibition of the PDF in the deformylation of F-α-AP and F-α-APM: presence of the β-form
T1 construct: made in house; host or cells: E. coli (overproducing cells)
T1 sequence (P0A6K3 1-169): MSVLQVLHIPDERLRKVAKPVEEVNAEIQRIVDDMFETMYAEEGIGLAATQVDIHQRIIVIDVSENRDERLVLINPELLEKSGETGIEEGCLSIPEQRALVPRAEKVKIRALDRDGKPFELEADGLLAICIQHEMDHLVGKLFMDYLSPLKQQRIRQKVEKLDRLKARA
Experimental: An EC 3.5.1.27 PDF (Fe^2+) enzyme was isolated from overproducing E. coli cells grown at 30° C. in 1.6 l TB medium for 14-16 hours. […] After washing with 120 ml of 20 mM Hepes/KOH, 100 mM KF, 0.2 mM TCEP, pH 7.7, the PDF (Fe^2+) was eluted with 150 ml 20 mM Hepes/KOH, 100 mM KCl, 0.2 mM TCEP, pH 7.7. […] After adjustment of the TCEP concentration to 1 mM and protein concentration to 40 mg/ml PDF (Fe^2+) was stored frozen at −60° C.
Compounds (100 mM) as indicated in Table 2 for each separate Example were incubated in the presence of 100 mM aqueous 2-(N-morpholino)-ethanesulphonic acid (MES)/KOH buffer pH=6.2 and 250 mM KCl at 37° C. […] Following a brief centrifugation, the amount of deformylated compounds in the supernatant was determined by trinitrobenzene sulphonic acid (TNBS) according to the method of Fields (Methods in Enzymology, 25, 464-468 (1972)), using ε420=21.2 mM^−1 cm^−1. The amount of (deformylated) compound each time was corrected for the intrinsic amount of free amino compound which was detected without incubation with the PDF.
The product yields indicated are the yields after 10 hours of reaction time.
In addition, the catalytic properties of the PDF in the deformylation reactions of F-α-AP and F-α-APM (in particular the initial reaction rates for deformylation in resp. 1 hour for F-α-APM and 3 hours for F-α-AP) were determined by performing the reactions of Examples 1 and 2 at various substrate concentrations from 2-140 mM. In particular, the following catalytic properties of the enzyme were determined: […]

[2] = test system: immobilized penicillin-acylase; test: Comparative Example D: deformylation of F-α-APM with penicillin-acylase, TLC; type: biochemical; conditions: 1 g F-α-APM in 25 ml, 0.2 g enzyme preparation, pH 6,5, 37° C., 48 hours
Experimental: 1 g of F-α-APM was dissolved in 25 ml of distilled water and the pH was adjusted to 6,5 by the addition of 0.1 M aqueous NaOH. Then, 0.2 g of an immobilized penicillin-acylase preparation was added. The reaction mixture was allowed to stand for 48 hours at 37° C. At regular time intervals during the reaction, samples were taken and analyzed by thin layer chromatography using α-APM as a reference substance.

penicillin-acylase = conditions: after 36 hours, 50 U of enzyme and 2 g of F-α-APM; cited from earlier work
[3] = substrate: COC(=O)[C@H](Cc1ccccc1)NC(=O)C[C@H](NC=O)C(=O)O; test: Deformylation reactions with PDF (Fe^2+), free amino compound determined by TNBS; type: biochemical, E. coli; conditions: other: PDF (Fe^2+), pH 6.2, 37° C.
[4] = substrate: O=CN[C@@H](CC(=O)O)C(=O)N[C@@H](Cc1ccccc1)C(=O)O; test: as above; type: biochemical, E. coli; conditions: other: substrate concentrations 2-140 mM, initial reaction rates
[5] = substrate: O=CN[C@@H](CC(=O)N[C@@H](Cc1ccccc1)C(=O)O)C(=O)O; test: as above; type: biochemical, E. coli; conditions: other: PDF (Fe^2+), pH 6.2, 37° C.
[6] = substrate: COC(=O)[C@H](Cc1ccccc1)NC(=O)[C@H](CC(=O)O)NC=O; test: as above; type: biochemical, E. coli; conditions: other: substrate concentrations 2-140 mM, initial reaction rates
[7] = Activity assay of isolated PDF (Fe^2+); type: biochemical; conditions: 5 mM formylmethionyl-alanine, 30° C., pH=7.2
Experimental: An EC 3.5.1.27 PDF (Fe^2+) enzyme was isolated from overproducing E. coli cells grown at 30° C. in 1.6 l TB medium for 14-16 hours. About 13 g (wet weight) of cell paste were suspended in 26 ml buffer (20 mM Hepes/KOH, 100 mM KF, pH 7.7 supplemented with 10 μg/ml catalase from bovine liver (Boehringer Mannheim) and 1 mM AEBSF, disintegrated by sonification (Branson B12, 20 min) at 0° C. and centrifuged at 200.000 g for 1 hour. The clear supernatant (1.3 g of protein; according to biurete reaction) was mixed with 1.3 ml 10% (w/v) Polymin G-35 (BASF) adjusted to pH 7.7 and centrifuged at 40.000 g for 10 minutes. The supernatant was applied to a 20 ml Met-Lys-Sepharose column that had been equilibrated with 20 mM Hepes/KOH, 100 mM KF, 0.2 mM TCEP, pH 7.7. After washing with 120 ml of 20 mM Hepes/KOH, 100 mM KF, 0.2 mM TCEP, pH 7.7, the PDF (Fe^2+) was eluted with 150 ml 20 mM Hepes/KOH, 100 mM KCl, 0.2 mM TCEP, pH 7.7. The protein containing fractions were concentrated by ultrafiltration using an Amicon PM10 membrane (yield: 140 mg protein, having an activity of 800 IU/mg; assay conditions: 5 mM formylmethionyl-alanine, 30° C., pH=7.2). After adjustment of the TCEP concentration to 1 mM and protein concentration to 40 mg/ml PDF (Fe^2+) was stored frozen at −60° C.

## O=CN[C@@H](CC(=O)O)C(=O)O [F-Asp, N-formyl-L-aspartic acid]
[1]
  yield (%) of deformylated product: 0.5%

## O=CN[C@@H](CC(=O)O)C(=O)N[C@@H](Cc1ccccc1)C(=O)O [F-α-AP, N-formyl-α-L-aspartyl-L-phenylalanine] (For-Asp-Phe-OH)
[1]
  yield (%) of deformylated product: 21.6%

## COC(=O)[C@H](Cc1ccccc1)NC(=O)[C@H](CC(=O)O)NC=O [F-α-APM, N-formyl-α-L-aspartyl-L-phenylalanine methyl ester] (For-Asp-Phe-OMe)
[2]
  formation of α-APM from F-α-APM: In none of the samples taken, formation of α-APM from F-α-APM could be demonstrated
penicillin-acylase
  yield of deformylation: 20%
[1]
  yield (%) of deformylated product: 44.2%

## O=CN[C@@H](CC(=O)N[C@@H](Cc1ccccc1)C(=O)O)C(=O)O [F-β-AP, N-formyl-β-L-aspartyl-L-phenylalanine]
[1]
  yield (%) of deformylated product: 1.1%
  inhibition of the PDF in the deformylation of F-α-AP and F-α-APM: does not give any inhibition

## COC(=O)[C@H](Cc1ccccc1)NC(=O)C[C@H](NC=O)C(=O)O [F-β-APM, N-formyl-β-L-aspartyl-L-phenylalanine methyl ester]
[1]
  yield (%) of deformylated product: 0.2%
  inhibition of the PDF in the deformylation of F-α-AP and F-α-APM: does not give any inhibition

B1: EC 3.5.1.27 PDF (Fe^2+) enzyme (Escherichia coli K-12) (protein)
chain: T1 sequence (P0A6K3 1-169)
notes: made in house; host or cells: E. coli (overproducing cells)
[3]
  kcat/Km: < 0.0001 M⁻¹ s⁻¹
[4]
  Km: 12.3 mM
  kcat: 0.00333 s⁻¹
  kcat/Km: 0.27 M⁻¹ s⁻¹
[5]
  kcat/Km: < 0.0001 M⁻¹ s⁻¹
[6]
  Km: 25.3 mM
  kcat: 0.0117 s⁻¹
  kcat/Km: 0.46 M⁻¹ s⁻¹

B2: PDF (Fe^2+): EC 3.5.1.27 formylmethionyl peptide deformylase with Fe^2+ co-factor, isolated from overproducing E. coli cells (protein, UniProt P0A6K3 2-169, looked up)
Peptide deformylase: SVLQVLHIPDERLRKVAKPVEEVNAEIQRIVDDMFETMYAEEGIGLAATQVDIHQRIIVIDVSENRDERLVLINPELLEKSGETGIEEGCLSIPEQRALVPRAEKVKIRALDRDGKPFELEADGLLAICIQHEMDHLVGKLFMDYLSPLKQQRIRQKVEKLDRLKARA
modifications: Fe2+ cofactor
notes: EC 3.5.1.27 formylmethionyl peptide deformylase with Fe^2+ co-factor, isolated from overproducing E. coli cells
[7]
  activity of the enzyme: 800 IU/mg
